Measured values taken from the supplement of paper PMC11061612.

Columns and labels:
[1] = tested on: COLO-824 (Breast Carcinoma); assay: combination Emax (second highest fraction inhibited in the dose matrix, 72 h); higher = more inhibition; extreme values may be limits of the assay
Procedure, shortened: (§1)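 After 24 hours at 37°C and 5% CO2 in 1536-well plates, cells in DMEM/F12 or RPMI plus 10% FBS received two-drug dose matrices for 72 hours. Viability came from CellTiter-Glo 2.0 luminescence and was scaled as inhibition, anchored at 0 by vehicle wells and at 1 by blank wells. Combination Emax is taken as the second-highest inhibition in the matrix, and Bliss excess as the observed combination effect less EA + EB − EA·EB, with EA and EB the single-agent effects.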

CAS-1 (Glioblastoma) [2] = assay: as above
Procedure, shortened: as §1

[3] = tested on: NCI-H2141 (Small Cell Lung Carcinoma); assay: as above
Procedure, shortened: as §1

[4] = tested on: NCI-H1666 (Lung Adenocarcinoma); assay: Bliss excess, mean over the matrix (fraction); higher = more synergy
Procedure, shortened: as §1

[5] = tested on: ECC10 (Gastric Carcinoma); assay: as above
Procedure, shortened: as §1

[6] = tested on: COLO-824 (Breast Carcinoma); assay: as above
Procedure, shortened: as §1

CAS-1 (Glioblastoma) [7] = assay: as above
Procedure, shortened: as §1

[8] = tested on: SISO (Cervical Carcinoma); assay: as above
Procedure, shortened: as §1

[9] = tested on: ONS-76 (Other Solid Carcinomas); assay: as above
Procedure, shortened: as §1

U-2-OS (Osteosarcoma) = assay: as above
Procedure, shortened: as §1

PA-1 (Ovarian Carcinoma) = assay: as above
Procedure, shortened: as §1

[10] = tested on: COR-L311 (Small Cell Lung Carcinoma); assay: as above
Procedure, shortened: as §1

[11] = tested on: NCI-H1693 (Lung Adenocarcinoma); assay: as above
Procedure, shortened: as §1

[12] = tested on: CCK-81 (Colorectal Carcinoma); assay: as above
Procedure, shortened: as §1

[13] = tested on: NCI-H1581 (Non-Small Cell Lung Carcinoma); assay: as above
Procedure, shortened: as §1

[14] = tested on: KARPAS-422 (B-Cell Non-Hodgkin's Lymphoma); assay: as above
Procedure, shortened: as §1

[15] = tested on: OS-RC-2 (Kidney Carcinoma); assay: as above
Procedure, shortened: as §1

Hs-445 (Non-Cancerous) = assay: as above
Procedure, shortened: as §1

FU97 (Gastric Carcinoma) = assay: as above
Procedure, shortened: as §1

NY (Osteosarcoma) = assay: as above
Procedure, shortened: as §1
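Throughout, for Bliss excess, mean over the matrix: after 72 h of two-drug dosing.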

Row | Structure (SMILES) | combination Emax [1] | combination Emax (CAS-1 (Glioblastoma) [2]) | combination Emax [3] | Bliss excess [4] | Bliss excess [5] | Bliss excess [6] | Bliss excess (CAS-1 (Glioblastoma) [7]) | Bliss excess [8] | Bliss excess [9] | Bliss excess (U-2-OS (Osteosarcoma)) | Bliss excess (PA-1 (Ovarian Carcinoma)) | Bliss excess [10] | Bliss excess [11] | Bliss excess [12] | Bliss excess [13] | Bliss excess [14] | Bliss excess [15] | Bliss excess (Hs-445 (Non-Cancerous)) | Bliss excess (FU97 (Gastric Carcinoma)) | Bliss excess (NY (Osteosarcoma))
1 | CCN(CCO)CCCOc1ccc2c(Nc3cc(CC(=O)Nc4cccc(F)c4)[nH]n3)ncnc2c1 [AZD2811] + O=C(c1cc(Cc2n[nH]c(=O)c3ccccc23)ccc1F)N1CCN(C(=O)C2CC2)CC1 [Olaparib] (first compound max 1 µM, 7x7, partner max 10 µM) | 0.797 | 0.255 | 0.307 | -0.0746 | -0.107 | -0.0071 | -0.0608 | 0.0951 | -0.0103 | 0.0112 | 0.0873 | -0.0088 | 0.007 | 0.032 | -0.0058 | 0.0267 | -0.0261 | 0.0459 | -0.0269 | -0.0339
2 | CN(CCO)CC[C@H](CSc1ccccc1)Nc1ccc(S(=O)(=O)NC(=O)c2ccc(N3CCC([C@@H](O)c4ccccc4-c4ccc(Cl)cc4)CC3)cc2)cc1S(=O)(=O)C(F)(F)F [AZD4320] + C1CN(CCC1(C(=O)N[C@@H](CCO)C2=CC=C(C=C2)Cl)N)C3=NC=NC4=C3C=CN4 [Capivasertib] (first compound max 1 µM, 7x7, partner max 3 µM) | 1 | 0.327 | 0.829 | -0.0491 | -0.0312 | -0.0103 | -0.078 | -0.0332 | -0.0469 | -0.0609 | 0.0592 | 0.0397 | -0.0456 | -0.0258 | -0.0143 | 0.0401 | -0.0547 | 0.0455 | 0.0069 | -0.0277
3 | CN(CCO)CC[C@H](CSc1ccccc1)Nc1ccc(S(=O)(=O)NC(=O)c2ccc(N3CCC([C@@H](O)c4ccccc4-c4ccc(Cl)cc4)CC3)cc2)cc1S(=O)(=O)C(F)(F)F [AZD4320] + C=CCn1c(=O)c2cnc(Nc3ccc(N4CCN(C)CC4)cc3)nc2n1-c1cccc(C(C)(C)O)n1 [AZD1775] (first compound max 1 µM, partner max 1 µM) | 1 | 0.713 | 1 | -0.0717 | 0.136 | 0.0803 | 0.0261 | -0.0116 | -0.0196 | -0.0059 | 0.0773 | -0.0091 | -0.0047 | -0.0198 | 0.059 | 0.0569 | -0.0254 | 0.165 | -0.0315 | 0.0694
4 | CN(CCO)CC[C@H](CSc1ccccc1)Nc1ccc(S(=O)(=O)NC(=O)c2ccc(N3CCC([C@@H](O)c4ccccc4-c4ccc(Cl)cc4)CC3)cc2)cc1S(=O)(=O)C(F)(F)F [AZD4320] + CCN(CCO)CCCOc1ccc2c(Nc3cc(CC(=O)Nc4cccc(F)c4)[nH]n3)ncnc2c1 [AZD2811] (first compound max 1 µM, 7x7, partner max 1 µM) | 1 | 0.417 | 0.896 | -0.0283 | 0.0193 | 0.0272 | 0.0208 | 0.0049 | 0.0817 | 0.0076 | 0.0664 | 0.0249 | -0.003 | -0.0345 | 0.0584 | 0.14 | -0.0659 | 0.175 | -0.0531 | -0.0182
5 | CN(CCO)CC[C@H](CSc1ccccc1)Nc1ccc(S(=O)(=O)NC(=O)c2ccc(N3CCC([C@@H](O)c4ccccc4-c4ccc(Cl)cc4)CC3)cc2)cc1S(=O)(=O)C(F)(F)F [AZD4320] + CN(C)CCCOc1ccc(-c2ccc3ncc4c(c3c2)n(C2CCOCC2)c(=O)n4C)cn1 [AZD0156] (first compound max 1 µM, 7x7, partner max 1 µM) | 1 | 0.229 | 0.801 | -0.0508 | 0.0096 | 0.0031 | -0.0328 | -0.0343 | -0.0494 | -0.0215 | -0.0528 | 0.0177 | -0.0226 | -0.0009 | 0.0018 | 0.0093 | -0.0706 | -0.0732 | -0.0303 | -0.0432
6 | CN(CCO)CC[C@H](CSc1ccccc1)Nc1ccc(S(=O)(=O)NC(=O)c2ccc(N3CCC([C@@H](O)c4ccccc4-c4ccc(Cl)cc4)CC3)cc2)cc1S(=O)(=O)C(F)(F)F [AZD4320] + C[C@@H]1COCCN1C2=NC(=NC(=C2)C3(CC3)[S@](=N)(=O)C)C4=C5C=CNC5=NC=C4 [AZD6738] (first compound max 1 µM, 7x7, partner max 10 µM) | 1 | 0.787 | 0.943 | -0.0645 | -0.0256 | -0.0365 | -0.0307 | -0.0078 | -0.0386 | -0.0394 | 0.0242 | -0.0005 | -0.0055 | -0.0546 | -0.0837 | 0.0896 | -0.0807 | 0.0592 | -0.0215 | 0.0125
7 | CN(CCO)CC[C@H](CSc1ccccc1)Nc1ccc(S(=O)(=O)NC(=O)c2ccc(N3CCC([C@@H](O)c4ccccc4-c4ccc(Cl)cc4)CC3)cc2)cc1S(=O)(=O)C(F)(F)F [AZD4320] + C[C@@H](Nc1cc(F)cc(F)c1)c1cc(C(=O)N(C)C)cc2c(=O)cc(N3CCOCC3)oc12 [AZD8186] (first compound max 1 µM, 7x7, partner max 3 µM) | 1 | 0.623 | 0.886 | 0.0153 | 0.0229 | 0.0422 | -0.0831 | 0.0326 | 0.0221 | 0.007 | 0.0411 | 0.0588 | 0.0468 | 0.0755 | 0.0052 | 0.0234 | -0.0197 | 0.0667 | 0.0471 | -0.005
8 | CN(CCO)CC[C@H](CSc1ccccc1)Nc1ccc(S(=O)(=O)NC(=O)c2ccc(N3CCC([C@@H](O)c4ccccc4-c4ccc(Cl)cc4)CC3)cc2)cc1S(=O)(=O)C(F)(F)F [AZD4320] + Cc1cc2ncnn2cc1Nc1ncc2c(n1)n(C1CCOCC1)c(=O)n2C [AZD7648] (first compound max 1 µM, 7x7, partner max 10 µM) | 1 | 0.171 | 0.829 | -0.0352 | 0.025 | 0.006 | -0.048 | -0.0328 | -0.0301 | -0.0294 | 0.0302 | 0.0219 | -0.0639 | -0.0091 | -0.0158 | -0.0071 | -0.0524 | 0.0079 | -0.0375 | -0.018
9 | CN(CCO)CC[C@H](CSc1ccccc1)Nc1ccc(S(=O)(=O)NC(=O)c2ccc(N3CCC([C@@H](O)c4ccccc4-c4ccc(Cl)cc4)CC3)cc2)cc1S(=O)(=O)C(F)(F)F [AZD4320] + Cn1cnc2c(F)c(Nc3ccc(Br)cc3Cl)c(C(=O)NOCCO)cc21 [Selumetinib] (first compound max 1 µM, 7x7, partner max 3 µM) | 1 | 0.575 | 0.893 | 0.0676 | 0.027 | -0.0523 | -0.054 | 0.0504 | 0.019 | 0.0351 | 0.144 | -0.0034 | 0.0031 | 0.133 | 0.0408 | -0.0387 | 0.0178 | 0.0606 | -0.011 | 0.0072
10 | COc1nnc2ccc(N3CCC(c4ccc(OCCN5CCN(C)C(=O)[C@H]5C)cc4)CC3)nn12 [AZD5153] + C=CCn1c(=O)c2cnc(Nc3ccc(N4CCN(C)CC4)cc3)nc2n1-c1cccc(C(C)(C)O)n1 [AZD1775] (first compound max 1 µM, partner max 1 µM) | 0.863 | 0.658 | 0.659 | -0.0944 | -0.0116 | -0.0551 | -0.0825 | -0.0346 | -0.0505 | -0.0304 | -0.043 | -0.06 | -0.0888 | -0.0558 | -0.0029 | -0.108 | -0.0324 | -0.192 | 0.0072 | 0.0119
11 | COc1nnc2ccc(N3CCC(c4ccc(OCCN5CCN(C)C(=O)[C@H]5C)cc4)CC3)nn12 [AZD5153] + CC1(C)CCC(CN2CCN(c3ccc(C(=O)NS(=O)(=O)c4ccc(NCC5CCOCC5)c([N+](=O)[O-])c4)c(Oc4cnc5[nH]ccc5c4)c3)CC2)=C(c2ccc(Cl)cc2)C1 [Venetoclax] (first compound max 1 µM, 7x7, partner max 1 µM) | 0.881 | 0.622 | 0.262 | -0.0603 | 0.0248 | -0.0176 | -0.0621 | -0.0335 | -0.0428 | -0.0424 | -0.077 | 0.0389 | -0.0464 | -0.054 | -0.115 | -0.032 | -0.0584 | 0.0178 | -0.0452 | -0.0722
